From patent US7384959B2, “Treatment of convulsive states” (priority 1999, dated 2008) come the findings set out here.

Marks after values point to notes of the source that are not given here.

The test system of this test is rat. The test is described as follows: barbital interaction (sleep induction) test. The class given is in vivo. Particulars: for NUMBER OF RATS SLEEPING: 10 rats per group; for SLEEP DURATION mean ± s.e.m.: maximum 6 hours after barbital injection. An excerpt: The following Tables report the results of the Irwin, PTZ and barbital interaction (sleep induction) tests. Description of these tests may be found in Psychopharmacologica, 13:222-257 (1968), Krall et al, Epilepsia 19:409-428 (1978), and Simon et al, J. Pharmacol, Paris 13:241-252 (1982). See also Roux et al, Phoenix international Pharmacology Reports Nos. D30.2061/2 and D99.021/2.
In Table 3, the following apply: Student's t Test: NS=Not Significant; *=p<0.05; **=p<0.01; ***=<0.001 Fisher's Exact Test: (number of rats sleeping) No indication=Not Significant; +=p<0.05; ++=p<0.01; +++=p<0.001 • (#): maximum=6 hours after barbital injection (taken 50 minutes after barbital injection).

As for `COC(=O)[C@@H](c1ccccc1)[C@@H]1CCCCN1` [l-MPH, l-threo-Methylphenidate], the “SLEEP DURATION % change from control” value (0.5 mg/kg s.c. −30 min) is recorded as “+3%”, the “SLEEP DURATION % change from control” value (2 mg/kg s.c. −30 min) is reported as −85%, the “SLEEP DURATION % change from control” value (4 mg/kg s.c. −30 min) is −93% and the “SLEEP DURATION % change from control” value (8 mg/kg s.c. −30 min) is listed as −79%. In addition, the “NUMBER OF RATS SLEEPING” value was 9 (0.5 mg/kg s.c. −30 min), 4 + (2 mg/kg s.c. −30 min), 6 (4 mg/kg s.c. −30 min) and 1 +++ (8 mg/kg s.c. −30 min). For the same compound, the “SLEEP DURATION mean ± s.e.m.” value reads like this: (0.5 mg/kg s.c. −30 min) 63.8 ± 18.5 NS min; (2 mg/kg s.c. −30 min) 9.5 ± 6.4** min; (4 mg/kg s.c. −30 min) 4.3 ± 2.3*** min; (8 mg/kg s.c. −30 min) 13.3 ± 13.3 min. Besides, the “effect on barbital-induced sleep” value (rat, in vivo) is on record as “antagonise barbital-induced sleep”.
